Legend:
[1] = target: Ba/F3 EGFR L858R/T790M/C797S cells (Homo sapiens, UniProt P00533, T790M/C797S/L858R, cells depend on it); experiment: Cell proliferation inhibition (Cell Titer-Glo), Ba/F3 EGFR L858R/T790M/C797S; format: cell-based, mouse; details: 72 hours, CellTiter-Glo, read-out: Ba/F3 EGFR L858R_T790M_C797S IC50
Description: (§1) Experimental objective: The objective of this test example is to test the inhibitory activity of compounds on the proliferation of different EGFR C797S drug-resistant mutant cell lines Ba/F3 EGFR Del19/T790M/C797S, Ba/F3 EGFR L858R/T790M/C797S, and Ba/F3 EGFR Del19/C797S.
(§2) • Ba/F3 EGFR Del19/T790M/C797S cells were purchased from KYinno Biotechnology Co., Ltd.; • Ba/F3 EGFR Del19/C797S cells were purchased from CoBioer Biosciences Co., Ltd.; • Ba/F3 EGFR L858R/T790M/C797S cells were purchased from CoBioer Biosciences Co., Ltd.; • Cell Titer-Glo was purchased from Promega, with a catalog number of G7573; • RPMI 1640 was purchased from Gibco, with a catalog number of 22400089; • FBS was purchased from Gibco, with a catalog number of 10091148; • cell culture plates were purchased from Corning, with a catalog number of 3610.
(§3) The inhibitory activity of the compound on the proliferation of different EGFR C797S drug-resistant mutant cell lines was detected using the Cell Titer-Glo method. The different cell lines were cultured in RPMI 1640 complete culture medium containing 10% FBS under conditions of 37° C. and 5% CO2, the cells were collected by centrifugation when growing to a certain density, and adjusted to appropriate cell density after counting, the cells were spread on a white 96-well plate at 90 μL/well, and cultured in a 37° C., 5% CO2 incubator overnight, prepared compound solutions of different concentrations were added at 10 μL/well, corresponding solvent controls were set, and all wells were cultured in a 37° C., 5% CO2 incubator for 72 hours, 50 μL of CellTiter-Glo solution was added to each well, shook and mixed evenly, and incubated in the dark for 10 minutes, and a BioTek Synergy H1 microplate reader was used for reading.
(§4) The luminescence signal value was used to calculate the inhibition rate. Graphpad Prism software was used to fit the concentration and inhibition rate to a nonlinear regression curve, so as to obtain the IC50 value, as shown in the Table below for details.

[2] = target: Ba/F3 EGFR Del19/C797S cells (Homo sapiens, UniProt P00533, C797S, cells depend on it, form not given); experiment: Cell proliferation inhibition (Cell Titer-Glo), Ba/F3 EGFR Del19/C797S; format: cell-based, mouse; details: 72 hours, CellTiter-Glo, read-out: Ba/F3 EGFR Del19/C797S IC50
Procedure, shortened: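 Ba/F3 lines carrying the EGFR mutants, grown in RPMI 1640 with 10% FBS, were seeded overnight then exposed to compound for 72 h at 37 °C, 5% CO2. Viability by CellTiter-Glo luminescence; IC50 from nonlinear regression of inhibition versus concentration.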

[3] = target: Ba/F3 EGFR Del19/T790M/C797S cells (Homo sapiens, UniProt P00533, T790M/C797S, cells depend on it, form not given); experiment: Cell proliferation inhibition (Cell Titer-Glo), Ba/F3 EGFR Del19/T790M/C797S; format: cell-based, mouse; details: 72 hours, CellTiter-Glo, read-out: Ba/F3 EGFR Del19_T790M_C797S IC50
Description: as §1, §2, §3, §4

[4] = Rat pharmacokinetic evaluation test; format: in vivo; details: Sprague-Dawley (SD), po, SD rats, male, p.o. 5 mg/kg, plasma
Description: SD rats were used as test animals to study the pharmacokinetic behavior of the compounds of the present invention in the rat body (plasma) after oral administration at a dose of 5 mg/kg.
2.2 Experimental Animals: 3 SD Rats/Group, Male, from Shanghai Jiesijie Experimental Animal Co., Ltd., Animal Production License Number (SCXK (Shanghai) 2013-0006 No. 311620400001794).
• Oral administration drug preparation: 20% solutol HS15 in 0.5% MC (methylcellulose)
20 g of a Solutol HS15 solid and 0.5 g of a MC solid powder were weighed and dissolved in 80 mL of purified water, and the mixture was vortexed, mixed until uniform, and subjected to ultrasound treatment to obtain a clear solution of 20% solutol HS15 in 0.5% MC.
The example compound was weighed into a 20 mL glass bottle, the solution was added thereto and the mixture was subjected to ultrasound treatment for 10 minutes to obtain a clear solution with a concentration of 0.5 mg/mL.
3 male SD rats were administered p.o. respectively after the 3 male SD rats were fasted overnight; the p.o. dose was 5 mg/kg and the administration volume was 10 mL/kg.
Blood collection: Before and after administration to rats, 0.2 mL of blood was collected from the jugular vein at 0.25, 0.5, 1, 2, 4, 6, 8 and 24 h, and placed in an EDTA-K2 anticoagulation tube, which was centrifuged at 6000 rpm at 4° C. for 6 min to separate plasma which was stored at −80° C.; the rats were fed 4 h after administration.
1) 160 μL of acetonitrile was added to 40 μL of plasma sample for precipitation, mixed and centrifuged at 3500×g for 5 to 20 min.
2) the treated supernatant solution was taken and subjected to LC/MS/MS to analyze the concentrations of the test compounds. LC/MS/MS analysis instrument: AB Sciex API 4000 Qtrap.
• Liquid phase conditions: Shimadzu LC-20AD pump • Chromatographic column: Agilent ZORBAX XDB-C18 (50×2.1 mm, 3.5 μm) mobile phase: liquid A is 0.1% aqueous formic acid solution, liquid B is acetonitrile • Flow rate: 0.4 mL/min • Elution time: 0-4.0 min, the eluent is as follows:
The main pharmacokinetic parameters were calculated using WinNonlin 6.1.

Chain of Ba/F3 EGFR L858R/T790M/C797S cells (P00533 whole entry T790M/C797S/L858R): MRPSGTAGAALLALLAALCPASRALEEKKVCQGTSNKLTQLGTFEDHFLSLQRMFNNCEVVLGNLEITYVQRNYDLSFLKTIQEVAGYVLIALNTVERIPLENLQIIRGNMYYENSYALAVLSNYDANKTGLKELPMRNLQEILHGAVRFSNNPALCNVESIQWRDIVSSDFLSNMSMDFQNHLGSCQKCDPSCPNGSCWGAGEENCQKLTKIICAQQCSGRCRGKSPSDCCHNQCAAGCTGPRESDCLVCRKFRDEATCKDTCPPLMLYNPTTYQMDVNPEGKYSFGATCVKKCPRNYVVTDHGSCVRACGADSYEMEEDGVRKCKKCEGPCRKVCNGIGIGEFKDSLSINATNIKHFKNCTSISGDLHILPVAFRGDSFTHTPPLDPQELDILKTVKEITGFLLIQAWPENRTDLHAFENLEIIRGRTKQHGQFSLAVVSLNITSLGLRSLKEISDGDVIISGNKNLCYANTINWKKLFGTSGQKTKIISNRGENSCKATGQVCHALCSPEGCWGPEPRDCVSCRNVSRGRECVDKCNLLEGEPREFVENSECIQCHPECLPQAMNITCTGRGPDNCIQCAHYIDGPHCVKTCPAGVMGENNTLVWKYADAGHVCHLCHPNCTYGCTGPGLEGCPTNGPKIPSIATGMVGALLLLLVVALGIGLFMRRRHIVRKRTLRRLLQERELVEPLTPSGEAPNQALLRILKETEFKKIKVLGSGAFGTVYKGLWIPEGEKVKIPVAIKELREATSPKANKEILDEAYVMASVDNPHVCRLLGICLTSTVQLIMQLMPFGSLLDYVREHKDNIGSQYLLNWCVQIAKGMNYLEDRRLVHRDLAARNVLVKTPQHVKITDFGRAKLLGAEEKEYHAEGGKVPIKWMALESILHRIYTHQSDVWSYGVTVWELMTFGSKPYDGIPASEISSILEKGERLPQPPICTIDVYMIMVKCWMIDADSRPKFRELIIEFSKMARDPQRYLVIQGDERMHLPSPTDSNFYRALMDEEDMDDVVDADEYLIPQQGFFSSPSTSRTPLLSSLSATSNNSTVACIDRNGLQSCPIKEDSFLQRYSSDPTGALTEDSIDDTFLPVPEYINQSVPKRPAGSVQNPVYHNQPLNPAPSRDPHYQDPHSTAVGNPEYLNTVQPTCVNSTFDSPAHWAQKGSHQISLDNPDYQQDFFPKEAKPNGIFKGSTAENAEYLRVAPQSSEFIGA
Chain of Ba/F3 EGFR Del19/T790M/C797S cells (P00533 with tags, fused parts or gaps DEL746-750/T790M/C797S, form open): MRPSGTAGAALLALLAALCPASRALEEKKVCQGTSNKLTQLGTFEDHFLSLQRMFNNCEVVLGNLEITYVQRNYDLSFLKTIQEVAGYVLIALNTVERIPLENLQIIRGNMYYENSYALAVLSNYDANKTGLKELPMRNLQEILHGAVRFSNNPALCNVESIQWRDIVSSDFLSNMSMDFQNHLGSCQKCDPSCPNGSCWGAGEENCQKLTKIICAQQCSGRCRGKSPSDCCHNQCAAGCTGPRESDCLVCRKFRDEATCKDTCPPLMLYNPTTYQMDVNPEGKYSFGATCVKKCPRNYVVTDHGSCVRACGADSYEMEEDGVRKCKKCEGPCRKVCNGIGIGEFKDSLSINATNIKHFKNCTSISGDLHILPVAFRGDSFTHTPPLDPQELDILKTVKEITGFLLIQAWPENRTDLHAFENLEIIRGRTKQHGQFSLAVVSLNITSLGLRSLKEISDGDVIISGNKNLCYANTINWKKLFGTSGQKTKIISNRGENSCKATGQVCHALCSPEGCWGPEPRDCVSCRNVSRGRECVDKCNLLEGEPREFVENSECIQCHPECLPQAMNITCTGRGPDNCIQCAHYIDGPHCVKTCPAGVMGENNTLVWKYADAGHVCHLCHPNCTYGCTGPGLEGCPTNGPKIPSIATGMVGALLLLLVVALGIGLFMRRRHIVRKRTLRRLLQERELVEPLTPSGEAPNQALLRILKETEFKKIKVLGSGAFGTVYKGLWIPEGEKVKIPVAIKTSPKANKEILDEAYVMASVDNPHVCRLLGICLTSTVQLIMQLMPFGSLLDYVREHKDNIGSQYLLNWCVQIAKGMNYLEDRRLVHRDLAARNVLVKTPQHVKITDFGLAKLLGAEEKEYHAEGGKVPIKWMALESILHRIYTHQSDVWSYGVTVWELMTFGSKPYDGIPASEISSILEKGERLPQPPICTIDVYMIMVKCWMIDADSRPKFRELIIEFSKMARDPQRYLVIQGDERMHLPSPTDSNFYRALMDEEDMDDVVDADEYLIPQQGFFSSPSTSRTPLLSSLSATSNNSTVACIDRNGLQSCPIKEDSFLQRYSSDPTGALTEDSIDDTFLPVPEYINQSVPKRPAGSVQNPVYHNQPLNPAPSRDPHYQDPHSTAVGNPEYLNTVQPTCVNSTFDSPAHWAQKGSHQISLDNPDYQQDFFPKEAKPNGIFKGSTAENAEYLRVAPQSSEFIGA
Chain of Ba/F3 EGFR Del19/C797S cells (P00533 with tags, fused parts or gaps DEL746-750/C797S, form open): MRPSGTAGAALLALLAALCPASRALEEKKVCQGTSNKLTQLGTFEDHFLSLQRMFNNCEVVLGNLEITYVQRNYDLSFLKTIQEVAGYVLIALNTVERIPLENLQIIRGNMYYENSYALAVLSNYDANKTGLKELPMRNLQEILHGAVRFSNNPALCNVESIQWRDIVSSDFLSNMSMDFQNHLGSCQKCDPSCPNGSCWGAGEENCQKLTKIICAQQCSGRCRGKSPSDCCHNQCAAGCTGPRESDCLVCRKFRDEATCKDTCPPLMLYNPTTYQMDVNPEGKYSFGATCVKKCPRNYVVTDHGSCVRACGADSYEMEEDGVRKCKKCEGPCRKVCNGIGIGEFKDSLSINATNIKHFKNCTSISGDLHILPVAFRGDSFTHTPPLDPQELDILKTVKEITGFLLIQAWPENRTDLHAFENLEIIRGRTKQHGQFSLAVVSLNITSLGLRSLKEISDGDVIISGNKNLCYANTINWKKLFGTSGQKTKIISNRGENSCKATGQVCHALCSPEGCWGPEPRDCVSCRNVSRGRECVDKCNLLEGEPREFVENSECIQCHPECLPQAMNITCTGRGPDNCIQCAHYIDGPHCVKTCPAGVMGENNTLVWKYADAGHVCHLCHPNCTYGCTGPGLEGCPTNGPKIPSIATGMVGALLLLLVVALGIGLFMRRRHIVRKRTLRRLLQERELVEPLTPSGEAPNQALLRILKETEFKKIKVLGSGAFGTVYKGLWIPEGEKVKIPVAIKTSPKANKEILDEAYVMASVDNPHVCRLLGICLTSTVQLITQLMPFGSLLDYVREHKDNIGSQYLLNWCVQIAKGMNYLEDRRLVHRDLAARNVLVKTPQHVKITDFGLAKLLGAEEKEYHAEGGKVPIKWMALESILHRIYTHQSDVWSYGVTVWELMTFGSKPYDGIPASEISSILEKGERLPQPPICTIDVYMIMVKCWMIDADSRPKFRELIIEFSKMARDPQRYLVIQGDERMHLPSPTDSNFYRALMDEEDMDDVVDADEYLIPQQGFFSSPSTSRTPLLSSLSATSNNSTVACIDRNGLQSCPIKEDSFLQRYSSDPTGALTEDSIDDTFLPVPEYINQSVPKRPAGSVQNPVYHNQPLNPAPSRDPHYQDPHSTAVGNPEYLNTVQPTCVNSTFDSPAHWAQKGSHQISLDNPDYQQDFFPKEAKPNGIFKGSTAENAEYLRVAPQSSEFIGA

GI50 [1]	GI50 [2]	GI50 [3]	AUC(0-t) [4]	Cmax [4]	half-life [4]	SMILES
15 nM	6.4 nM	5.6 nM	1570 ng·h/mL	180 ng/mL	3 h	CC(C)c1cnc(N2C[C@H](CS(C)(=O)=O)[C@H]2C)c2cnc(Nc3ccnc(-c4cn(C)nc4Cl)n3)cc12 [Example 132, N-(2-(3-chloro-1-methyl-1H-pyrazol-4-yl)pyrimidin-4-yl)-5-isopropyl-8-((2R,3S)-2-methyl-3-((methanesulfonyl)methyl)azetidin-1-yl)-2,7-diazanaphthalen-3-amine]
11 nM	5.1 nM	3.7 nM	1260 ng·h/mL	239 ng/mL	4.1 h	CC(C)c1ccc(N2C[C@H](CS(C)(=O)=O)[C@H]2C)c2cnc(Nc3ccnc(-c4cn(C)nc4Cl)n3)cc12 [Example 5, N-(2-(3-chloro-1-methyl-1H-pyrazol-4-yl)pyrimidin-4-yl)-5-isopropyl-8-((2R,3S)-2-methyl-3-((methanesulfonyl)methyl)azabut-1-yl)isoquinolin-3-amine]
7.5 nM	3 nM	2.1 nM	3140 ng·h/mL	240 ng/mL	3.3 h	Cc1nn(C)cc1-c1nccc(Nc2cc3c(C(C)C)ccc(N4C[C@H](N(C)S(C)(=O)=O)[C@H]4C)c3cn2)n1 [Example 126, N-((2R,3S)-1-(3-((2-(1,3-dimethyl-1H-pyrazol-4-yl)pyrimidin-4-yl)amino)-5-isopropylisoquinolin-8-yl)-2-methylazetidin-3-yl)-N-methyl methanesulfonamide]
8.2 nM	5.1 nM	2.9 nM	1260 ng·h/mL	97 ng/mL	3.5 h	CC(C)c1ccc(N2C[C@H](N(C)S(C)(=O)=O)[C@H]2C)c2cnc(Nc3ccnc(-c4cn(C)nc4Cl)n3)cc12 [Example 122, N-((2R,3S)-1-(3-((2-(3-chloro-1-methyl-1H-pyrazol-4-yl)pyrimidin-4-yl)amino)-5-isopropylisoquinolin-8-yl)-2-methylazetidin-3-yl)-N-methyl methanesulfonamide]
